According to ChEMBL document CHEMBL1201862, “PubChem BioAssay data set” (2004):
Blank lines part the entries; values can stand above or below the molecule they belong to. Active and inactive are the calls of the source.

How the values were obtained:
Hexokinase-1 = biological target: T1, Hexokinase-1 (Homo sapiens, UniProt P19367); assay: HK1 enzyme activation by HKDC1 hits – biochemical, selectivity assay for HKDC1 activator project, dose response (AID 504762); type: functional
T1 sequence (P19367 whole entry): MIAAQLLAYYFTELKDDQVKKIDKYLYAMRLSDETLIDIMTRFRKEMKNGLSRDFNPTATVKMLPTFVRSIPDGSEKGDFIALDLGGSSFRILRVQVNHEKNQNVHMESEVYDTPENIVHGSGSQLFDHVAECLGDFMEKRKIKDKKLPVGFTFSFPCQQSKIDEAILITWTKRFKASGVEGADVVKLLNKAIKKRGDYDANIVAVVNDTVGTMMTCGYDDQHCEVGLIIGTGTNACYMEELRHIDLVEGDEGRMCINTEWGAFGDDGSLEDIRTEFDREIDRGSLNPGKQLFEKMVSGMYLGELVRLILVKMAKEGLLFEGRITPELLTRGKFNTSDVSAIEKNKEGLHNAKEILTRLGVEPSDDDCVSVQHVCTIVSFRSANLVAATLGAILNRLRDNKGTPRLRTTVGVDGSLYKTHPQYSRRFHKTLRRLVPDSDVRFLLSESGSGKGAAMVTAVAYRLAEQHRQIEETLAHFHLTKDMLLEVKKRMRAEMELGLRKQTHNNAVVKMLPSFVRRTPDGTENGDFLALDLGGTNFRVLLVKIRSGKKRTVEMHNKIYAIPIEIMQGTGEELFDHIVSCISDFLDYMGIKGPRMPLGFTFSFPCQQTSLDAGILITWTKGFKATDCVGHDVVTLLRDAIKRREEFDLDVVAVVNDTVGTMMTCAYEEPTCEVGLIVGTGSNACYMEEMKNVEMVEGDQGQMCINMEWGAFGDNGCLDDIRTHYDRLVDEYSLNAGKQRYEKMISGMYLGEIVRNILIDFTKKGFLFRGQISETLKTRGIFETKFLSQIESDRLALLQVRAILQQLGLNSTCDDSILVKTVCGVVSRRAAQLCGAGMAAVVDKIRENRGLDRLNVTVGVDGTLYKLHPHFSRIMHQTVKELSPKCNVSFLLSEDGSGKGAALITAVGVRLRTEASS

Hexokinase HKDC1 = biological target: T2, Hexokinase HKDC1 (Homo sapiens, UniProt Q2TB90); assay: activation of HKDC1 glucose phosphorylation – biochemical, W721R variant, dose response (AID 504730); type: functional
T2 sequence (Q2TB90 whole entry): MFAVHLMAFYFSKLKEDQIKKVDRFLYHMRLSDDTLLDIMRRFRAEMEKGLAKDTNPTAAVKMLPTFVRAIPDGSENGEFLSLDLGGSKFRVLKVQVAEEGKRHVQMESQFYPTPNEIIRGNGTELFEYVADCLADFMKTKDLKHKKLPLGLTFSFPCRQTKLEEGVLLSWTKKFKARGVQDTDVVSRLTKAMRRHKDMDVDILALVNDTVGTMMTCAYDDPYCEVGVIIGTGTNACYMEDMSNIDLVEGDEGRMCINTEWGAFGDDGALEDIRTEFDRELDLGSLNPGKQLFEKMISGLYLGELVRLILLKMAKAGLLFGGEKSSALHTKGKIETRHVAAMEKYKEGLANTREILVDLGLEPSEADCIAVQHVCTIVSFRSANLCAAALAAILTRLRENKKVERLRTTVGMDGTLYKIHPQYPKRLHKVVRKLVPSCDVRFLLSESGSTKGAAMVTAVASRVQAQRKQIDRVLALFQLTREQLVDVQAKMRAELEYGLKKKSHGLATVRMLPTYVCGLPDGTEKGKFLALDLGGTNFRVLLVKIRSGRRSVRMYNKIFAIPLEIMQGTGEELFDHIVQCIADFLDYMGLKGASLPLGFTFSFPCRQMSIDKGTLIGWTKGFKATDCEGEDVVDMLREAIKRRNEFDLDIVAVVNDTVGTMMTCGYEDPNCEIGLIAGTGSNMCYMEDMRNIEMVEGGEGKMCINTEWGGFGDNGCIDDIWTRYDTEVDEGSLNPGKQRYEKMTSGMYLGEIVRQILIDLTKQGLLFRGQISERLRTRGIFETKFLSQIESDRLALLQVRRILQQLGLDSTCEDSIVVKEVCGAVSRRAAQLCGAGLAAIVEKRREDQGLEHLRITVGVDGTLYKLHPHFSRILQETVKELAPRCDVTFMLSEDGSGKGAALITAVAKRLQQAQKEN

[1] = biological target: T3, Calpain-2 catalytic subunit (Sus scrofa, UniProt P43367); assay: m-calpain protease blockers, concentration series – biochemical, fluorogenic peptide substrate, dose response (AID 1420); type: functional
T3 sequence (P43367 whole entry): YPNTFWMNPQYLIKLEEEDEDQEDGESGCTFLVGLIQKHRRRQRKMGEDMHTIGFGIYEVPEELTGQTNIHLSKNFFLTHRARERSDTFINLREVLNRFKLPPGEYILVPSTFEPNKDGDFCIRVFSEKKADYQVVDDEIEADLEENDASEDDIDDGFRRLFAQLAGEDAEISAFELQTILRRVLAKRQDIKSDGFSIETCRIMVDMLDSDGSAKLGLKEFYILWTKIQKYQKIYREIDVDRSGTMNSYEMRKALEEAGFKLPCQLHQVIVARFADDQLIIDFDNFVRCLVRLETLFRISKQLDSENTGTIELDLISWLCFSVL

[2] = test system: Streptococcus sp. 'group A'; assay: Streptococcus pyogenes SK(-)GAS viability under kanamycin – luminescence, BacTiterGlo, confirmation, counter-screen for streptokinase expression inhibitor project, dose response (AID 1900); type: functional, organism-based
[3] = blockers of HIV-1 ZM109 envelope-driven cell-cell fusion – HeLa effector, CEM target cells, luciferase, cherry-pick, dose response (AID 652058); type: functional, cell-based;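 note: luciferase signal from HIV-1 Env mediated cell-cell fusion of effector and target cells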
[4] = HIV-1 AD8 envelope cell-cell fusion blockers – cherry-pick, dose response (AID 652062); type: functional, cell-based;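 note: luciferase signal from cell-cell fusion driven by HIV-1 clade B AD8 Env; potency is for inhibitors of fusion seen as a drop in luminescence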
[5] = biological target: Mitogen-activated protein kinase 1 (Homo sapiens, UniProt P28482); type: functional
Chain of Mitogen-activated protein kinase 1 (P28482 whole entry): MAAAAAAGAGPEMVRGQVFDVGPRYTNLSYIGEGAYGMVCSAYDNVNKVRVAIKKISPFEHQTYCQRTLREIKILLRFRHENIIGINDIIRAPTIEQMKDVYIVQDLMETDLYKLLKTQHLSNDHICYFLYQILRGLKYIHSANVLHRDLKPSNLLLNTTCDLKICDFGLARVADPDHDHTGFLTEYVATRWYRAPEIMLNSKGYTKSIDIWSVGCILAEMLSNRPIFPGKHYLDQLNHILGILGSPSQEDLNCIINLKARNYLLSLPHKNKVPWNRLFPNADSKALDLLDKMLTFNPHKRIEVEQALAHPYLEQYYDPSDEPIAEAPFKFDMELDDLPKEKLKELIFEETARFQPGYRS

[6] = biological target: Vascular endothelial growth factor receptor 3 (Homo sapiens, UniProt P35916); type: functional;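 note: value from a kinome-wide profiling panel, with FLT4 as the panel member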
Chain of Vascular endothelial growth factor receptor 3 (P35916 whole entry): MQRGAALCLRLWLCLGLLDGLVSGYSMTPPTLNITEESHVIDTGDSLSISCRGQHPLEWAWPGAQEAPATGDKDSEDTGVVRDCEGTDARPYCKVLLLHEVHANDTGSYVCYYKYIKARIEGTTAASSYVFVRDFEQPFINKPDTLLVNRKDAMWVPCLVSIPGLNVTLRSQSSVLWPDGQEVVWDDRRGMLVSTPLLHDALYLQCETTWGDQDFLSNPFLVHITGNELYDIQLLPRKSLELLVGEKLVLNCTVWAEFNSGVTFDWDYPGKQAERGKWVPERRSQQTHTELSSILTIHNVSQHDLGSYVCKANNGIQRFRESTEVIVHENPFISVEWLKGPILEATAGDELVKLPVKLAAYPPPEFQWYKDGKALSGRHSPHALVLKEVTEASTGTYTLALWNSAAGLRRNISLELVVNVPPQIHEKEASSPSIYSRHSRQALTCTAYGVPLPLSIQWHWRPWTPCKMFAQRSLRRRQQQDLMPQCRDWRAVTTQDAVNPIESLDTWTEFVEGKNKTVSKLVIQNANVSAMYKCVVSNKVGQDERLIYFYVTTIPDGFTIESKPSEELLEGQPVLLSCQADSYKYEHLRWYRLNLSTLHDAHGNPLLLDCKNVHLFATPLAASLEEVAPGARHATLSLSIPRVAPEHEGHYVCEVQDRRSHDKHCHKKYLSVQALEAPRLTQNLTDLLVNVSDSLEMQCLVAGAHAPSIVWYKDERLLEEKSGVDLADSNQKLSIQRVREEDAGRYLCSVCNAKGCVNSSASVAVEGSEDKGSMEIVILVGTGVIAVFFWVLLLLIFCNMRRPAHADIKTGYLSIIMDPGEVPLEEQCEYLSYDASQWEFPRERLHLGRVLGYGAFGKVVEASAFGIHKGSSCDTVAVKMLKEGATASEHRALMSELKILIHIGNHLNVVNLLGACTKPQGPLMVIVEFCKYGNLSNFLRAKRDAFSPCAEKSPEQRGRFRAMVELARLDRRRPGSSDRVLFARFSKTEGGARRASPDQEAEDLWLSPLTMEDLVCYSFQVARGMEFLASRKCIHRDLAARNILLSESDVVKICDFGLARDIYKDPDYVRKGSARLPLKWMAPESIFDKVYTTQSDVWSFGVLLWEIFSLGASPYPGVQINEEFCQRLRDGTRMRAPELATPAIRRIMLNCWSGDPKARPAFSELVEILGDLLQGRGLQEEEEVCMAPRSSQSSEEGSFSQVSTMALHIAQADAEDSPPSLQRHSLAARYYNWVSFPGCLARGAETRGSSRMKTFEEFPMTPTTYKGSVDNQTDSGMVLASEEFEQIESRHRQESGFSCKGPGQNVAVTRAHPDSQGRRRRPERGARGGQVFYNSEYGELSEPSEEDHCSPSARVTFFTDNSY

[7] = biological target: Mitogen-activated protein kinase 8 (Homo sapiens, UniProt P45983); type: functional;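 note: value comes from one member of a kinome-wide kinase profiling panel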
Chain of Mitogen-activated protein kinase 8 (P45983 whole entry): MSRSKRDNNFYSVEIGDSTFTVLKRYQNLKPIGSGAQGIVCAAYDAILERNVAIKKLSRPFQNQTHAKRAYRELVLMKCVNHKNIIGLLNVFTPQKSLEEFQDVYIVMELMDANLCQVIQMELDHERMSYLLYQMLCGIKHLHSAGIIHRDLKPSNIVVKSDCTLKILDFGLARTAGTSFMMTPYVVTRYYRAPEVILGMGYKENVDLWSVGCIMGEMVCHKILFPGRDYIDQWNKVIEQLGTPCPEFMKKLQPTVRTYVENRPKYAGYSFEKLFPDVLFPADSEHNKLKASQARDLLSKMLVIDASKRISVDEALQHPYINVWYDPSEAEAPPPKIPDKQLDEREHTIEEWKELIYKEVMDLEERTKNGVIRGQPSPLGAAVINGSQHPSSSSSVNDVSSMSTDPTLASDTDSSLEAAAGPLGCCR

[8] = biological target: Mitogen-activated protein kinase kinase kinase kinase 2 (Homo sapiens, UniProt Q12851); type: functional;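 note: measured as one member of a kinome-wide kinase panel, with MAP4K2 as the panel entry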
Chain of Mitogen-activated protein kinase kinase kinase kinase 2 (Q12851 whole entry): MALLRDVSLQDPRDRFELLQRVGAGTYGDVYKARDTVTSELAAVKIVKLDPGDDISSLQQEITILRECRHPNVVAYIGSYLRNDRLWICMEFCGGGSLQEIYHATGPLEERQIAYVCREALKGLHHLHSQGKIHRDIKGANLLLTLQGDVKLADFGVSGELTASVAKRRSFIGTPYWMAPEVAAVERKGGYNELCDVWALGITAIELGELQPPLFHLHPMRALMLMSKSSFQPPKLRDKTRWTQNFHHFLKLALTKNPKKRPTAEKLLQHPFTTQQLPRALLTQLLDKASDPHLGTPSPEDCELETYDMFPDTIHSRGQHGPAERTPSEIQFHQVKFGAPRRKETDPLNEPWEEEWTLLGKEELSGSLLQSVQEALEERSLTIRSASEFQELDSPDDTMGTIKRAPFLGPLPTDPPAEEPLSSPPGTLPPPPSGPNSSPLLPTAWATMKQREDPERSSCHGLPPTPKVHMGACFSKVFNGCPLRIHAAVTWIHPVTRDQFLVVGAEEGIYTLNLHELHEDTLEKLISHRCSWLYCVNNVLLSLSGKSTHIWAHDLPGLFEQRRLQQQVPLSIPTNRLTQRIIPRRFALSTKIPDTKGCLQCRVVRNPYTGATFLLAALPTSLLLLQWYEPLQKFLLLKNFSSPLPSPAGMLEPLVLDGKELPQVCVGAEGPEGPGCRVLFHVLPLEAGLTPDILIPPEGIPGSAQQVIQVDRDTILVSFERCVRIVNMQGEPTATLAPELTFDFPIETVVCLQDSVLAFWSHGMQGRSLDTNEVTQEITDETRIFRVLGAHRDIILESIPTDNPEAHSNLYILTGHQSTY

Structure (SMILES): O=C(O)c1ccc(NC2=C(Cl)C(=O)c3ccccc3C2=O)cc1
EC50 (Hexokinase-1): 10.6 µM (active)
EC50 (Hexokinase HKDC1): 5.62 µM (active)
IC50 [1]: 10.8 µM (not active)

Structure (SMILES): O=C(O)c1ccc2c3c(ncnc13)-c1ccccc1C2=O
EC50 [2]: 6.43 µM (active)

Structure (SMILES): CCOC(=O)c1c2c(n(Cc3ccccc3)c1C)C(=O)C(=O)c1ccccc1-2
AC50 [3]: 10.9 µM (active)
AC50 [4]: 10.6 µM (active)

Ki [5]: > 7.94 µM (inactive)
Ki [6]: 1 µM (active)
Ki [7]: > 3.16 µM (inactive)
Ki [8]: > 6.31 µM (inactive)
Structure (SMILES): Cc1ccc2nccc(NC(=O)Nc3cccc(C(F)(F)F)n3)c2c1
